According to patent US20240174625A1, “COMPOSITIONS AND METHODS FOR TREATING TAUOPATHIES” (The Regents of the University of California, priority 2021, published 2024):

What was measured:
phosphorylated tau = assay: Tau histopathology in hTau^P301S mouse model of tauopathy; assay type: in vivo; details: hTau^P301S homozygous mice; 20 mg/kg/day s.c. for 28 days; compared to vehicle
Source text: Adult hTau^P301S homozygous mice (Tg2541Godt mice, a transgenic mouse model of tauopathy carrying a human Tau^P301S mutation^19 and wild-type (WT) littermates on a C57BL/6J background of both genders were used in the in vivo efficacy on Tau histopathology experiments. hTauP301S homozygous mice were obtained as gifts from Dr. Michel Goedert at MRC Laboratory of Molecular Biology, Cambridge, UK and Dr. Stanley Prusiner at UCSF, USA, and were re-derived onto a pure C57BL/6J genetic background by Dr. Prusiner's lab. Mice were periodically outcrossed with WT C57BL/6J mice (Strain #000664) from Jackson Laboratory (Bar Harbor, ME) to maintain genetic diversity. Animals were group-housed in a temperature-controlled facility (73±2° F., 45% humidity, regular 12-hour light/dark cycle, lights on at 7 AM), with food and water ad libitum. All experimental procedures were approved by the ARC administrative office at the University of California Los Angeles (UCLA) and the UCLA institutional animal care and use committee (IACUC) and followed the USDA Animal Welfare Act Regulations, the Public Health Service (PHS) Policy on Humane Care and Use of Laboratory Animals, and the Guide for the Care and Use of Laboratory Animals. Adult male WT mice on a C57BL/6J background (Strain #000664), purchased from Jackson Laboratory (Bar Harbor, ME), were used in the in vivo pharmacokinetics and blood-brain barrier penetration studies. Animals were randomly assigned to experimental groups and tested by experimenters blinded to experimental conditions.
Osmotic minipump (model #2004) were purchased from Alzet (Cupertino, CA, USA) and implanted into mice subcutaneously (s.c.) following the manufacturer's instruction, as previously described^20. Briefly, animals are placed on a thermoregulation device and anesthetized using isoflurane [4-5% (induction), 1.5-2.5% (maintenance)]. A sterile drape is used to create a sterile field for surgery after animal preparation. […] Animals are monitored observed continuously during the immediate anesthetic-recovery period until the animal is ambulatory. Animals are monitored daily after anesthetic recovery for 7 days. […]
Assessment of tau histopathological in a mouse model of tauopathy Effects of pharmacological manipulations of JMM compounds on tau histopathology were evaluated via osmotic pump chronic infusion at 20 mg/kg/day s.c. over 28 consecutive days in hTau^P301S homozygous mice or WT littermates, starting treatment at the onset of Tau histopathology (i.e., 4.2 months old age). […] Animals are weighted (g) and rectal temperature (° C.) was measured using a thermometer equipped with a mouse rectal probe (Braintree Scientific Inc., Braintree, MA) on treatment day 27. […]

HEK293T cells = assay: Cell viability assay (CellTiter Glo); assay type: cell-based, human
Method in brief: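 HEK293T cells seeded at 16,500 per well on poly-L-ornithine in minimal medium with amino acids, vitamins and AlbuMax in HBS, with compound added as a 20-step 2-fold dilution. CellTiter Glo luminescence was read after 24 h. Viability is the signal normalized to DMSO control.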

NPEPPS = molecular target: T1, NPEPPS (Homo sapiens, UniProt P55786); assay: Cell-based NPEPPS activity assay (Q-AMC fluorescence); details: log10 transformed; EC50 = concentration that elevates 50% NPEPPS activity (150% of DMSO baseline); HEK293T cells
T1 construct: endogenous in cells; host or cells: HEK293T
Method in brief: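 HEK293T cells (16,500/well) on poly-L-ornithine in minimal medium with compounds in 20-step 2-fold dilution for 24 h, then H-Gln-AMC added (30 μl of 200 μM). Fluorescence (ex/em 360/460 nm) read at addition and 3 h later; change in fluorescence taken as NPEPPS activity, giving EC50 versus DMSO control.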

T1 sequence (P55786 whole entry): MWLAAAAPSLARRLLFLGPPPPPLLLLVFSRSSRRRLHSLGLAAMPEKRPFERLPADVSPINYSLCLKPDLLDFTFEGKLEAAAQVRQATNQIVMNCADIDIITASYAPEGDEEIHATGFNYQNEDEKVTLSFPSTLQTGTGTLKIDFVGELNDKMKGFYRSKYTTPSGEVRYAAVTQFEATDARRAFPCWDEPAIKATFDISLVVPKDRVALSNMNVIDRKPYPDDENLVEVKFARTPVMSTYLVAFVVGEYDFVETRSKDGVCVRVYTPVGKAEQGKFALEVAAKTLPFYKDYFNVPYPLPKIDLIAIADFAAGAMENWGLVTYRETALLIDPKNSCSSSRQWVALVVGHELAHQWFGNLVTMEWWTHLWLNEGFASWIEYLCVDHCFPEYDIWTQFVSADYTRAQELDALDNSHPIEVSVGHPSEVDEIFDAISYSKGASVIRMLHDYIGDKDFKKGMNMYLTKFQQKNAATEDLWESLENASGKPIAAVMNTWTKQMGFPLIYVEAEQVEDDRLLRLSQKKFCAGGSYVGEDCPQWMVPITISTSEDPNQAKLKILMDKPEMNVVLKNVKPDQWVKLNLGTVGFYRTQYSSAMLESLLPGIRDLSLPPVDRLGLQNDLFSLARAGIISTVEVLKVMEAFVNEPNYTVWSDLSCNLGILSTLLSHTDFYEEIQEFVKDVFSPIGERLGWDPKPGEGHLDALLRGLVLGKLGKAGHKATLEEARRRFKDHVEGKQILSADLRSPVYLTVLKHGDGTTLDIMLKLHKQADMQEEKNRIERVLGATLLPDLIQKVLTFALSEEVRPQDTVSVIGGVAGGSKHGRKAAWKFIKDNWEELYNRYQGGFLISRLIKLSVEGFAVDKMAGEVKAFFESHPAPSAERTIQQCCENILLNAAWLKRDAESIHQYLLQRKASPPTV

FC(F)(F)c1ccc(CNc2nsc3cccc(OCc4ccccc4)c23)cc1 [JMM062]
tau histopathology in the cortex (phosphorylated tau staining) (phosphorylated tau): reduced
IC50 (HEK293T cells; Homo sapiens, HEK-293T, log10 transformed, IC50 = concentration that suppresses 50% cell viability, HEK293T cells): 18.6 µM
Therapeutic index (HEK293T cells; ratio of IC50 (cell viability) over EC50 (NPEPPS activity)): 1.42
EC50 (NPEPPS): 13.2 µM
